In patent US9981071B2, “Drug delivery medical device” (Micell Technologies, Inc., priority 2008, dated 2018):
One block for each molecule: values may come before it.

How the values were obtained:
[1] = test system: bladder cancer recurrence; settings: 40 mg/20 cc vs 20 mg/20 cc, dehydration, bladder emptying, alkalinization with sodium bicarbonate; cited from earlier work
[2] = acid urine; cited from earlier work
[3] = Bulk drug in arterial tissue surrounding the implanted stent; type: in vivo, Yucatan pig
Description: Another sample of the coated stent was prepared for in vivo evaluation in a porcine coronary artery model using the Yucatan pig. Subjects were initially given 650 mg acetylsalicylic acid and 300 mg Plavix. Maintenance doses of 81 mg acetylsalicylic acid and 75 mg Plavix were administered. The target ACT (activated clotting time) for the procedure was about 250 seconds. Stent oversizing in relation to the artery was about 10-20%. The preparation of the sirolimus-coated stent was the same as described in Example 1 and used for the in vitro deployment into tubing, except that the device was sterilized using ETO prior to implantation into the animal.
The bulk concentration of drug was measured in the arterial tissue surrounding the implanted stent at 1, 3, 7, 14, and 28 days after implant, and provided a quantitative measure of the high efficiency of transfer of drug into the therapeutic site using devices and methods of the invention. The amount of drug that was detected in the arterial tissue was as follows: 1 day after implant, ˜6 μg; 3 days after implant, ˜16 μg; 7 days after implant, ˜30 μg; 14 days after implant, ˜30 μg; 28 days after implant, ˜13 μg. Peak tissue concentration of sirolimus of ˜30 μg at 14 days after implant was representative of approximately ⅙ of the total drug that had been loaded on the stent. Note that some drug likely metabolized or diffused out of the arterial tissue into other areas of the body.

[4] = parameters: dose or concentration left out as unconfirmed; settings: estradiol release, as its 3-acetate ester; cited from earlier work

Structure (SMILES): CO[C@@]12[C@H](COC(N)=O)C3=C(C(=O)C(C)=C(N)C3=O)N1C[C@@H]1N[C@@H]12 [Mitomycin C]
recurrence with optimized schedule [1]: nearly cut in half | stability in urine [2]: inactivated by acid urine

amount of drug detected in the arterial tissue ([3]; 1 day after implant): ~6 µg | amount of drug detected in the arterial tissue ([3]; 3 days after implant): ~16 µg | amount of drug detected in the arterial tissue ([3]; 7 days after implant): ~30 µg | amount of drug detected in the arterial tissue ([3]; 14 days after implant): ~30 µg | peak tissue level as fraction of the total drug loaded on the stent ([3]; 14 days after implant): approximately ⅙ | amount of drug detected in the arterial tissue ([3]; 28 days after implant): ~13 µg
Structure (SMILES): CO[C@H]1C[C@@H]2CC[C@@H](C)[C@@](O)(O2)C(=O)C(=O)N2CCCC[C@H]2C(=O)O[C@H]([C@H](C)C[C@@H]2CC[C@@H](O)[C@H](OC)C2)CC(=O)[C@H](C)/C=C(\C)[C@@H](O)[C@@H](OC)C(=O)[C@H](C)C[C@H](C)/C=C/C=C/C=C/1C [sirolimus]

Structure (SMILES): C[C@]12CC[C@@H]3c4ccc(O)cc4CC[C@H]3[C@@H]1CC[C@@H]2O [estradiol]
circulating plasma concentration maintained [4]: 300 pmol/L
